The source made the active and inactive calls. Cut-off read from the data, not from the text of the source, for most assays here: actives have a measured IC50 and inactives only a lower limit.
What was measured:
[1] = target: Polyadenylate-binding protein 1 (Homo sapiens, UniProt P11940); assay: PABP poly(A) RNA binding inhibitors, primary screen, biochemical, fluorescence polarization, uHTS (AID 2014)
[2] = target: Eukaryotic translation initiation factor 4H (Homo sapiens, UniProt Q15056); assay: human eIF4H binding inhibitors, primary screen, translation initiation inhibitor project, biochemical, uHTS, fluorescence polarization (AID 2012)
[3] = target: T1, Tyrosine-protein phosphatase non-receptor type 7 (Homo sapiens, UniProt P35236); type: functional
T1 sequence (P35236 whole entry): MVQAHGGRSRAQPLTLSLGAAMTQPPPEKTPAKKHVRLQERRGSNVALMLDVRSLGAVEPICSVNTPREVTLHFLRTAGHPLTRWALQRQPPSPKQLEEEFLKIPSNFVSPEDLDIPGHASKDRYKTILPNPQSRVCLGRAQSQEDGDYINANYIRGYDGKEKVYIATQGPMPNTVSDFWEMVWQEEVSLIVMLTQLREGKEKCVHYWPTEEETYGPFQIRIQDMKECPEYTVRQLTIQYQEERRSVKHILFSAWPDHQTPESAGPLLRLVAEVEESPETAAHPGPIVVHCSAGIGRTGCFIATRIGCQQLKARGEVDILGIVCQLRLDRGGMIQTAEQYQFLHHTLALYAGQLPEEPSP

[4] = target: T2, Dual specificity protein phosphatase 6 (Rattus norvegicus, UniProt Q64346)
T2 sequence (Q64346 whole entry): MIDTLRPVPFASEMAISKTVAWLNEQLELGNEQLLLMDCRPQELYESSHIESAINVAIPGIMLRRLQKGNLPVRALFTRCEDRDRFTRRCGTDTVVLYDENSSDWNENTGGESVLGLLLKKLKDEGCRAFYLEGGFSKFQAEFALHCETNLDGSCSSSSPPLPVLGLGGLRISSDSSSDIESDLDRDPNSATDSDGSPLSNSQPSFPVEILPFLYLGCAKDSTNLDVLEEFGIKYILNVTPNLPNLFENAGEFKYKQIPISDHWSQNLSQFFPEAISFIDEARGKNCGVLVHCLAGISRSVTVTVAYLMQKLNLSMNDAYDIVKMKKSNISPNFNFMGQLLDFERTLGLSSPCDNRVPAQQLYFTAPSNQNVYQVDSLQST

[5] = target: T2, Dual specificity protein phosphatase 6; type: functional
[6] = target: Glyceraldehyde-3-phosphate dehydrogenase (Homo sapiens, UniProt P04406)
Sequence of Glyceraldehyde-3-phosphate dehydrogenase (P04406 whole entry): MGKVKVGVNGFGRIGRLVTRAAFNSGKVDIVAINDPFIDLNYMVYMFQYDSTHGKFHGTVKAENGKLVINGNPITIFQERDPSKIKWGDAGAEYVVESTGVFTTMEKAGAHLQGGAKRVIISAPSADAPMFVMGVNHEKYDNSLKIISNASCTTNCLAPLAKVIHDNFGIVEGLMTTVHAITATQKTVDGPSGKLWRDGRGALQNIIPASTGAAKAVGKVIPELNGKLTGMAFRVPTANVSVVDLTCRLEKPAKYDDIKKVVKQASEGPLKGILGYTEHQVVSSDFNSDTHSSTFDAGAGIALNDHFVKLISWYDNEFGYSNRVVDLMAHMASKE

[7] = target: Melanin-concentrating hormone receptor 1 (Homo sapiens, UniProt Q99705); assay: Late-stage fluorescence-based counterscreen for antagonists of the G-protein coupled receptor 7 (GPR7): cell-based dose response assay to identify antagonists of the melanin-concentrating hormone receptor 1 (MCHR1). [Related pubchem assays (depositor defined):AID1861, AID1880, AID1952, AID2148, AID2251, AID2257, AID485339]; type: functional;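 note: stimulated with 30 nM MCH peptide agonist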
Sequence of Melanin-concentrating hormone receptor 1 (Q99705 whole entry): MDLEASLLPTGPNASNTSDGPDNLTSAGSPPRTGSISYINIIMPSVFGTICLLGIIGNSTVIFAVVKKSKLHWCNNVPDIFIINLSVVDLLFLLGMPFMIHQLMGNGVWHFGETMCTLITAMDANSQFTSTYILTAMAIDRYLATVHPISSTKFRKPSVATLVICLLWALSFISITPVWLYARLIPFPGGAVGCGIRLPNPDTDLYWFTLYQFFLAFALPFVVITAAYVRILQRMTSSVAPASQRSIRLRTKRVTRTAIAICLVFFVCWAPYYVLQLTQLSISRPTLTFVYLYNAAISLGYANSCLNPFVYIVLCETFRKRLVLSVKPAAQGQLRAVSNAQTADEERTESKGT

Sequence of Polyadenylate-binding protein 1 (P11940 whole entry): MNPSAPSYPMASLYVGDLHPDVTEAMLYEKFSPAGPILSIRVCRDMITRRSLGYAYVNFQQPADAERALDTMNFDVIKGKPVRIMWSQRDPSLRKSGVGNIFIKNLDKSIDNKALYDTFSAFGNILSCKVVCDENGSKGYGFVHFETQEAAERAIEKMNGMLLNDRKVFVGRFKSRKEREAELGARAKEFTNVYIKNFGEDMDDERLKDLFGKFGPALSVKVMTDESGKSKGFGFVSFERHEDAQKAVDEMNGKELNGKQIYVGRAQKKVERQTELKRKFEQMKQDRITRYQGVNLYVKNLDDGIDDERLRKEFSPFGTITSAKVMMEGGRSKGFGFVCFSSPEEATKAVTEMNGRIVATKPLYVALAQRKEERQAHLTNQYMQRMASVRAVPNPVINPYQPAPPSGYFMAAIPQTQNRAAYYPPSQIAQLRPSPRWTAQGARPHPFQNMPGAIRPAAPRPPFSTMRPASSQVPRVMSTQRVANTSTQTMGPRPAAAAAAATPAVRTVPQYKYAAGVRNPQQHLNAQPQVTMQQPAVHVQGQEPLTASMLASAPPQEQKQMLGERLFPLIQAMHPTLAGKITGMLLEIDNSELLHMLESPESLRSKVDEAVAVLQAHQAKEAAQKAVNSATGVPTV

## O=C(CCS(=O)(=O)c1ccc(Br)cc1)N1CCN(c2ccc(F)cc2)CC1
[1]
  IC50: > 100 µM (inactive)
[2]
  IC50: 24.2 µM (active)

## Cc1cc(O)c2c(c1)C1C=CCC1C(C(=O)O)N2 (stereo not drawn)
[3]
  IC50: 2.41 µM (active)
[4]
  IC50: > 100 µM (inactive)
[5]
  IC50: > 100 µM (inactive)
[6]
  IC50: > 100 µM (not active)

## CN(CC(=O)NC(=O)NCc1ccco1)CC(=O)Nc1ccccc1Cl
[1]
  IC50: 60.8 µM (active)
[2]
  IC50: 20.5 µM (active)

## O=C(O)C1Nc2c(cccc2S(=O)(=O)c2ccccc2)C2C=CCC12 (stereo not drawn)
[3]
  IC50: 11 µM (active)
[4]
  IC50: 52.2 µM (active)
[5]
  IC50: 58.7 µM (active)
[6]
  IC50: 56.4 µM (active)

## Cc1ccccc1SCC(=O)N1CCN(c2ccc(C(F)(F)F)cn2)CC1
[1]
  IC50: > 100 µM (inactive)
[2]
  IC50: > 100 µM (inactive)

## Cc1ccc(C(=O)OCC(=O)NC2CCCCC2)o1
[1]
  IC50: 63 µM (active)
[2]
  IC50: 51 µM (active)

## CC(C)c1ccc(-n2ncc(Cl)c(Oc3ccc(OC(F)(F)F)cc3)c2=O)cc1
[7]
  IC50: 12 µM (inactive)

## COc1ccc(Oc2c(-c3ccco3)cnn(-c3ccc(C)cc3)c2=O)cc1
[7]
  IC50: 13.5 µM (inactive)

Source: ChEMBL document CHEMBL1201862, “PubChem BioAssay data set” (2004)
